From patent publication US7479493B2, “Substituted benzyl amine compounds” (Janssen Pharmaceutica N.V., priority 2006, dated 2009)

Columns and labels:
Rat SERT = Rat SERT (Rattus norvegicus, UniProt P31652); assay: biochemical
Description: The supernatant was removed and re-centrifuged at 15,000 rpm for 30 min. […] Membranes were incubated with 0.6 nM [^3H]-Citalopram plus/minus test compounds for 60 min at 25° C. and harvested by rapid filtration over GF/C glass fiber filters (pretreated with 0.3% polyethylenimine) followed by four washes with ice-cold buffer. Nonspecific binding was defined in the presence of 100 μM fluoxetine.

human H3 receptor = human H3 receptor (Homo sapiens, UniProt Q9Y5N1); assay: Cyclic AMP Accumulation (reporter gene, SK-N-MC cells)
Description: Sublines of SK-N-MC cells were created that expressed a reporter construct and the human H3 receptor. The reporter gene (β-galactosidase) is under the control of multiple cyclic AMP responsive elements. In 96-well plates, histamine was added directly to the cell media followed 5 min later by an addition of forskolin (5 μM final concentration). When appropriate, antagonists were added 10 min prior to agonist addition. After a 6-h incubation at 37° C., the media was aspirated and the cells washed with 200 μL of phosphate-buffered saline followed by a second aspiration. […] Color was developed using 25 μL of 1 mg/mL substrate solution (chlorophenolred β-D galactopyranoside; Roche Molecular Biochemicals, Indianapolis, Ind.).

cloned human H3 receptor = cloned human H3 receptor (Homo sapiens, UniProt Q9Y5N1); assay: H3 Receptor Binding; settings: cloned human H3 receptor stably expressed in SK-N-MC cells
cloned human H3 receptor, sequence (Q9Y5N1 whole entry): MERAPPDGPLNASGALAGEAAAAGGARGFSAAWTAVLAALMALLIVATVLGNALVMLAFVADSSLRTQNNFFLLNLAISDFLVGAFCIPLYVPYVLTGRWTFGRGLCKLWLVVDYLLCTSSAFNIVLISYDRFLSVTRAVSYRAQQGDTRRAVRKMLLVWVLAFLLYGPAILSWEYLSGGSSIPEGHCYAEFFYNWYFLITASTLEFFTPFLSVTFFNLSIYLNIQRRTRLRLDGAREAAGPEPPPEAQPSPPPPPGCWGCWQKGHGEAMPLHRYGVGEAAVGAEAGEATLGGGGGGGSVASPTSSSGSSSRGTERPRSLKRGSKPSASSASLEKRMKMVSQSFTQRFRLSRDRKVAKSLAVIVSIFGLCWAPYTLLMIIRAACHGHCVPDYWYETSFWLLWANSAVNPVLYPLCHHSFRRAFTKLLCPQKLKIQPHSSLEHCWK

Rat SERT, sequence (P31652 whole entry): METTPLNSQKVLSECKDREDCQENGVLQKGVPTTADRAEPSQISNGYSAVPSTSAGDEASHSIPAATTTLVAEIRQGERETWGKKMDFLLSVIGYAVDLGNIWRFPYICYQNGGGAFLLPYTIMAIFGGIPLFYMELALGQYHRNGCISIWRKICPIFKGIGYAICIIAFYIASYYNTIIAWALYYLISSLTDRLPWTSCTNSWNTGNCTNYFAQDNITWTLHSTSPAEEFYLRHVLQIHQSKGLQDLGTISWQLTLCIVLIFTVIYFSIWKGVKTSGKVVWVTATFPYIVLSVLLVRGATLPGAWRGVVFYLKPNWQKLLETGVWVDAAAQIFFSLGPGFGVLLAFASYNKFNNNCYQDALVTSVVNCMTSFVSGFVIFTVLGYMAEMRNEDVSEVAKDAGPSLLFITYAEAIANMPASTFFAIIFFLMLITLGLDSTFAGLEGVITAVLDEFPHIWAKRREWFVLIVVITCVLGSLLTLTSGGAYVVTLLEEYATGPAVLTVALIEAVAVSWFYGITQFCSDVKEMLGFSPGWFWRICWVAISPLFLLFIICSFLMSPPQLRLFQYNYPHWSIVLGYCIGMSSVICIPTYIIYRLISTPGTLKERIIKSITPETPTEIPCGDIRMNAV
human H3 receptor, sequence (Q9Y5N1 whole entry): as the sequence (Q9Y5N1 whole entry) above

Compound `CNCc1cc(N2CCN(C(C)C)CCC2=O)ccc1Oc1ccc(SC)cc1` [Example 54, 1-Isopropyl-4-[3-methylaminomethyl-4-(4-methylsulfanyl-phenoxy)-phenyl]-[1,4]diazepan-5-one] has a Ki (Rat SERT) of 0.5 nM, a Kb (human H3 receptor) of 2 nM and a Ki (cloned human H3 receptor) of 3 nM.
`O=C(c1ccc(CN2CCCCC2)c(Oc2cccnc2)c1)N1CCN(C2CC2)CC1` [Example 34, (4-Cyclopropyl-piperazin-1-yl)-[4-piperidin-1-ylmethyl-3-(pyridin-3-yloxy)-phenyl]-methanone] was tested, and the Kb (human H3 receptor) was 1.26 nM and the Ki (cloned human H3 receptor) was 3 nM.
`CC(C)N1CCN(C(=O)c2ccc(CNC3CC3)c(Oc3cccnc3)c2)CC1` [Example 30, [4-Cyclopropylaminomethyl-3-(pyridin-3-yloxy)-phenyl]-(4-isopropyl-piperazin-1-yl)-methanone] showed a Ki (Rat SERT) of 4000 nM, a Kb (human H3 receptor) of 0.794 nM and a Ki (cloned human H3 receptor) of 3 nM.
`O=C(c1ccc(CNC2CC2)c(Oc2cccnc2)c1)N1CCN(C2CC2)CC1` [Example 31, [4-Cyclopropylaminomethyl-3-(pyridin-3-yloxy)-phenyl]-(4-cyclopropyl-piperazin-1-yl)-methanone] gave a Ki (Rat SERT) of 1000 nM, a Kb (human H3 receptor) of 1.58 nM and a Ki (cloned human H3 receptor) of 10 nM.
`CN(C)C1CCN(C(=O)c2ccc(CN3CCCCC3)c(Oc3cccnc3)c2)C1` (stereo not shown) [Example 35, (3-Dimethylamino-pyrrolidin-1-yl)-[4-piperidin-1-ylmethyl-3-(pyridin-3-yloxy)-phenyl]-methanone] gave a Kb (human H3 receptor) of 2.51 nM and a Ki (cloned human H3 receptor) of 7 nM.
Work on `CNCc1cc(N2CCN(C3CCC3)CC2)ccc1Oc1ccc(SC)cc1` [Example 42, [5-(4-Cyclobutyl-piperazin-1-yl)-2-(4-methylsulfanyl-phenoxy)-benzyl]-methyl-amine] yielded a Ki (Rat SERT) of 0.3 nM and a Ki (cloned human H3 receptor) of 6 nM.
Compound `CNCc1cc(CN2CCN(C(C)C)CCC2=O)ccc1Oc1ccc(Cl)c(Cl)c1` [Example 69, 4-[4-(3,4-Dichloro-phenoxy)-3-methylaminomethyl-benzyl]-1-isopropyl-[1,4]diazepan-5-one] has a Ki (Rat SERT) of 4 nM and a Ki (cloned human H3 receptor) of 110 nM.
`CNCc1cc(N2CCN(C3CC3)CC2)ccc1Oc1ccc(SC)cc1` [Example 45, [5-(4-Cyclopropyl-piperazin-1-yl)-2-(4-methylsulfanyl-phenoxy)-benzyl]-methyl-amine] gave a Ki (Rat SERT) of 1 nM and a Ki (cloned human H3 receptor) of 76 nM.
Work on `CNCc1cc(C(=O)NCCN2CCCC2)ccc1Oc1cccc(Cl)c1` [Example 71, 4-(3-Chloro-phenoxy)-3-methylaminomethyl-N-(2-pyrrolidin-1-yl-ethyl)-benzamide] yielded a Ki (Rat SERT) of 2 nM and a Ki (cloned human H3 receptor) of 6 nM.
In the case of `CNCc1cc(N2CCN(C(C)C)CC2)ccc1Oc1ccc(Cl)c(Cl)c1` [Example 47, [2-(3,4-Dichloro-phenoxy)-5-(4-isopropyl-piperazin-1-yl)-benzyl]-methyl-amine], the Ki (Rat SERT) is reported as 2 nM and the Ki (cloned human H3 receptor) is reported as 20 nM.
`CNCc1cc(C(=O)N2CCN(C3CC3)CC2)ccc1Oc1cccc(Cl)c1F` [Example 24, [4-(3-Chloro-2-fluoro-phenoxy)-3-methylaminomethyl-phenyl]-(4-cyclopropyl-piperazin-1-yl)-methanone] was tested, and the Ki (Rat SERT) was 130 nM and the Ki (cloned human H3 receptor) was 31 nM.
In the case of `CNCc1cc(N2CCCN(C3CC3)CC2)ccc1Oc1ccc(SC)cc1` [Example 53, [5-(4-Cyclopropyl-[1,4]diazepan-1-yl)-2-(4-methylsulfanyl-phenoxy)-benzyl]-methyl-amine], the Ki (Rat SERT) is reported as 6 nM and the Ki (cloned human H3 receptor) is reported as 28 nM.
With `CNCc1cc(C(=O)N2CCN(C3CC3)CC2)ccc1Oc1ccc(C)nc1` [Example 20, (4-Cyclopropyl-piperazin-1-yl)-[3-methylaminomethyl-4-(6-methyl-pyridin-3-yloxy)-phenyl]-methanone] the Ki (Rat SERT) was 190 nM and the Ki (cloned human H3 receptor) was 59 nM.
For `CNCc1cc(C(=O)N2CCN(C3CC3)CC2)ccc1Oc1ccc(Cl)cc1F` [Example 22, [4-(4-Chloro-2-fluoro-phenoxy)-3-methylaminomethyl-phenyl]-(4-cyclopropyl-piperazin-1-yl)-methanone], the Ki (Rat SERT) was 21 nM and the Ki (cloned human H3 receptor) was 18 nM.
For `CC(C)N1CCN(C(=O)c2ccc(CN3CCCCC3)c(Oc3cccnc3)c2)CC1` [Example 33, (4-Isopropyl-piperazin-1-yl)-[4-piperidin-1-ylmethyl-3-(pyridin-3-yloxy)-phenyl]-methanone], the Kb (human H3 receptor) was 0.316 nM and the Ki (cloned human H3 receptor) was 2 nM.
Compound `CNCc1cc(CN2CCN(C3CCC3)CCC2=O)ccc1Oc1ccc(Cl)c(Cl)c1` [Example 70, 1-Cyclobutyl-4-[4-(3,4-dichloro-phenoxy)-3-methylaminomethyl-benzyl]-[1,4]diazepan-5-one] has a Ki (Rat SERT) of 5 nM and a Ki (cloned human H3 receptor) of 19 nM.
For `CSc1ccc(Oc2ccc(CN3CCN(C(C)C)CC3)cc2CN)cc1` [Example 65, 5-(4-Isopropyl-piperazin-1-ylmethyl)-2-(4-methylsulfanyl-phenoxy)-benzylamine], the Ki (Rat SERT) was 18 nM and the Ki (cloned human H3 receptor) was 4 nM.
Work on `CNCc1cc(CN2CCN(C(C)C)C(=O)C2)ccc1Oc1ccc(Cl)c(Cl)c1` [Example 66, 4-[4-(3,4-Dichloro-phenoxy)-3-methylaminomethyl-benzyl]-1-isopropyl-piperazin-2-one] yielded a Ki (Rat SERT) of 6 nM and a Ki (cloned human H3 receptor) of 2500 nM.
`CCNCc1cc(CN2CCN(C(C)C)CC2)ccc1Oc1ccc(SC)cc1` [Example 63, Ethyl-[5-(4-isopropyl-piperazin-1-ylmethyl)-2-(4-methylsulfanyl-phenoxy)-benzyl]-amine] gave a Ki (Rat SERT) of 6 nM and a Ki (cloned human H3 receptor) of 0.9 nM.
For `CNCc1cc(C(=O)N2CCN(C3CC3)CC2)ccc1Oc1ccc(F)c(Cl)c1` [Example 21, [4-(3-Chloro-4-fluoro-phenoxy)-3-methylaminomethyl-phenyl]-(4-cyclopropyl-piperazin-1-yl)-methanone], the Ki (Rat SERT) was 19 nM and the Ki (cloned human H3 receptor) was 32 nM.
In the case of `CNCc1ccc(C(=O)N2CCN(C3CC3)CC2)cc1Oc1ccc(Cl)c(Cl)c1` [Example 39, (4-Cyclopropyl-piperazin-1-yl)-[3-(3,4-dichloro-phenoxy)-4-methylaminomethyl-phenyl]-methanone], the Ki (Rat SERT) is reported as 17 nM and the Ki (cloned human H3 receptor) is reported as 15 nM.
Compound `CNCc1ccc(C(=O)N2CCN(C(C)C)CC2)cc1Oc1cccc(Cl)c1` [Example 38, [3-(3-Chloro-phenoxy)-4-methylaminomethyl-phenyl]-(4-isopropyl-piperazin-1-yl)-methanone] has a Ki (Rat SERT) of 130 nM and a Ki (cloned human H3 receptor) of 4 nM.
With `CNCc1cc(C(=O)NCCCN(C)C)ccc1Oc1cccc(Cl)c1` [Example 27, 4-(3-Chloro-phenoxy)-N-(3-dimethylamino-propyl)-3-methylaminomethyl-benzamide] the Ki (Rat SERT) was 0.8 nM and the Ki (cloned human H3 receptor) was 48 nM.
Work on `CN(C)C1CCN(C(=O)c2ccc(CNC3CC3)c(Oc3cccnc3)c2)C1` (stereo not shown) [Example 32, [4-Cyclopropylaminomethyl-3-(pyridin-3-yloxy)-phenyl]-(3-dimethylamino-pyrrolidin-1-yl)-methanone] yielded a Ki (Rat SERT) of 6000 nM and a Ki (cloned human H3 receptor) of 26 nM.
Compound `CNCc1cc(CN2CCN(C(C)C)CC2=O)ccc1Oc1ccc(Cl)c(Cl)c1` [Example 67, 1-[4-(3,4-Dichloro-phenoxy)-3-methylaminomethyl-benzyl]-4-isopropyl-piperazin-2-one] has a Ki (Rat SERT) of 4 nM and a Ki (cloned human H3 receptor) of 6 nM.
Work on `Cc1ccc(Oc2cc(C(=O)N3CCN(C4CC4)CC3)ccc2CN(C)C)c(C)n1` [Example 80, (4-Cyclopropyl-piperazin-1-yl)-[4-dimethylaminomethyl-3-(2,6-dimethyl-pyridin-3-yloxy)-phenyl]-methanone] yielded a Ki (Rat SERT) of 500 nM and a Ki (cloned human H3 receptor) of 140 nM.
